Data reported in patent US9796700B2 (Celgene CAR LLC, priority 2013, dated 2017).

Biological target: Erk1 (Homo sapiens (Human), UniProt P27361)
Experiment: Protein Mass Modification Assay (intact protein MALDI)
Type: binding
Description: Protein Mass Modification Assay
Intact protein: Erk1 from Millipore (Cat. No. 14-439) was incubated for 60 min. at room temperature with a 10-fold excess of test compound to protein. 4 μL aliquots of the resulting mixture were diluted with 15 μL of 0.2% TFA prior to micro C4 ZipTipping directly onto the MALDI target using sinapinic acid as the desorption matrix (10 mg/ml in 0.1% TFA:Acetonitrile 50:50, v/v). The centroid mass of the target protein in the control sample was compared with the centroid mass of the target protein incubated with compound. A shift in the centroid mass of the treated protein compared to the untreated protein was divided by the molecular weight of the compound. This number corresponds to the percentage of modified protein after one hour incubation. Results from this assay are reported in Table A under the column “ERK1 Mass Mod (%).”

Erk1, sequence (P27361 whole entry, looked up): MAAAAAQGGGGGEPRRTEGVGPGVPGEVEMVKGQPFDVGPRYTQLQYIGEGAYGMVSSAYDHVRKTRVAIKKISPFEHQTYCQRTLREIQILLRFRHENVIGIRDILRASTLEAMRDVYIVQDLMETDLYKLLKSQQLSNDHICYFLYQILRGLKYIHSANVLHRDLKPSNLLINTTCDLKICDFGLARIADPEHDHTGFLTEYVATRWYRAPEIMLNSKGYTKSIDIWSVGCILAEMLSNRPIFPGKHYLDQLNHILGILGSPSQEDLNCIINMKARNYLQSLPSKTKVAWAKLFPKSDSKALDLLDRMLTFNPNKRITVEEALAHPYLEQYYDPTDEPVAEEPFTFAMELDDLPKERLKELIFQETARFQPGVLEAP

**Q.** Which “ERK1 Mass Mod (%)” value does the source give for `C=CC(=O)Nc1ccccc1Nc1nc(N[C@@H]2CCC[C@H](C(=O)NOC)C2)ncc1C(F)(F)F` (racemic) [Compound I-3, Rac-cis-3-((4-((2-acrylamidophenyl)amino)-5-(trifluoromethyl)pyrimidin-2-yl)amino)-N-methoxycyclohexanecarboxamide] here?
**A.** E (provided a mass modification of ≧70%)

**Q.** Which “ERK1 Mass Mod (%)” value does the source give for `C=CC(=O)Nc1ccccc1Nc1nc(N[C@@H]2CCC[C@H](C(=O)NOCCO)C2)ncc1C(F)(F)F` (racemic) [Compound I-4, Rac-cis-3-((4-((2-acrylamidophenyl)amino)-5-(trifluoromethyl)pyrimidin-2-yl)amino)-N-(2-hydroxyethoxy)cyclohexanecarboxamide] here?
**A.** F (provided a mass modification of 31-69%)

**Q.** How did the “ERK1 Mass Mod (%)” value turn out when `C=CC(=O)Nc1cc(F)ccc1Nc1nc(N[C@@H]2CCC[C@H](C(N)=O)C2)ncc1C(F)(F)F` (racemic) [Compound I-5, Rac-cis-3-((4-((2-acrylamido-4-fluorophenyl)amino)-5-(trifluoromethyl)pyrimidin-2-yl)amino)cyclohexanecarboxamide] was run?
**A.** E (provided a mass modification of ≧70%)

**Q.** With `C/C=C/C(=O)Nc1cc(F)ccc1Nc1nc(N[C@@H]2CCC[C@H](C(N)=O)C2)ncc1C(F)(F)F` (racemic) [Compound I-6, Rac-(E)-3-((4-((2-(but-2-enamido)-4-fluorophenyl)amino)-5-(trifluoromethyl)pyrimidin-2-yl)amino)-cis-cyclohexanecarboxamide] as the molecule, how does the “ERK1 Mass Mod (%)” value read?
**A.** E (provided a mass modification of ≧70%)

**Q.** How did the “ERK1 Mass Mod (%)” value turn out when `C=CC(=O)Nc1ccccc1Nc1nc(N[C@@H]2CCC[C@H](C(=O)O)C2)ncc1C(F)(F)F` (racemic) [Compound I-14, Rac-3-((4-((2-acrylamidophenyl)amino)-5-(trifluoromethyl)pyrimidin-2-yl)amino)-cis-cyclohexanecarboxylic acid] was run?
**A.** E (provided a mass modification of ≧70%)

**Q.** For `CC(=O)N1CCC[C@H](Nc2ncc(C(F)(F)F)c(NC3C4C=CC(C4)C3C(=O)NC#N)n2)C1` (mixture of isomers) [Compound I-25, Rac-3-((2-(((S)-1-acetylpiperidin-3-yl)amino)-5-(trifluoromethyl)pyrimidin-4-yl)-cis-amino)-N-cyanobicyclo[2.2.1]hept-5-ene-2-carboxamide], which “ERK1 Mass Mod (%)” value is on record?
**A.** G (proived a mass modification ≦30%)

**Q.** `C=CC(=O)N[C@H]1CCCC[C@@H]1Nc1nc(N[C@H]2CCCN(C(=O)CO)C2)ncc1C(F)(F)F` (racemic) [Compound I-27, Rac-N-(2-((2-(((R)-1-(2-hydroxyacetyl)piperidin-3-yl)amino)-5-(trifluoromethyl)pyrimidin-4-yl)amino)-trans-cyclohexyl)acrylamide] was tested. Which “ERK1 Mass Mod (%)” value did it give?
**A.** F (provided a mass modification of 31-69%)

**Q.** With `C=CC(=O)Nc1ccccc1Nc1nc(N[C@@H]2CCC[C@H](C(=O)NOCCO)C2)ncc1Cl` (racemic) [Compound I-103, Rac-3-((4-((2-acrylamidophenyl)amino)-5-chloropyrimidin-2-yl)amino)-N-(2-hydroxyethoxy)-cis-cyclohexanecarboxamide] as the molecule, how does the “ERK1 Mass Mod (%)” value read?
**A.** E (provided a mass modification of ≧70%)

**Q.** With `C=CC(=O)N(C)c1ccccc1Nc1nc(N[C@@H]2CCC[C@H](C(N)=O)C2)ncc1Cl` (racemic) [Compound I-105, Rac-cis-3-((5-chloro-4-((2-(N-methylacrylamido)phenyl)amino)pyrimidin-2-yl)amino)cyclohexanecarboxamide] as the molecule, how does the “ERK1 Mass Mod (%)” value read?
**A.** F (provided a mass modification of 31-69%)

**Q.** For `C=CC(=O)N(C)c1ccccc1Nc1nc(N[C@@H]2CCC[C@H](C(=O)NOC)C2)ncc1Cl` (racemic) [Compound I-106, Rac-cis-3-((5-chloro-4-((2-(N-methylacrylamido)phenyl)amino)pyrimidin-2-yl)amino)-N-methoxycyclohexanecarboxamide], which “ERK1 Mass Mod (%)” value is on record?
**A.** F (provided a mass modification of 31-69%)

**Q.** For `C=CC(=O)Nc1cc(F)ccc1Nc1nc(N[C@@H]2CCC[C@H](C(N)=O)C2)ncc1Cl` (racemic) [Compound I-112, Rac-cis-3-((4-((2-acrylamido-4-fluorophenyl)amino)-5-chloropyrimidin-2-yl)amino)cyclohexanecarboxamide], which “ERK1 Mass Mod (%)” value is on record?
**A.** E (provided a mass modification of ≧70%)

**Q.** Which “ERK1 Mass Mod (%)” value does the source give for `C/C=C/C(=O)Nc1cc(F)ccc1Nc1nc(N[C@@H]2CCC[C@H](C(N)=O)C2)ncc1Cl` (racemic) [Compound I-113, Rac-cis-(E)-3-((4-((2-(but-2-enamido)-4-fluorophenyl)amino)-5-chloropyrimidin-2-yl)amino)cyclohexanecarboxamide] here?
**A.** F (key: E: provided a mass modification of ≧70%; F: provided a mass modification of 31-69%; G: proived a mass modification ≦30%)

**Q.** How did the “ERK1 Mass Mod (%)” value turn out when `C=C(C)C(=O)Nc1cc(F)ccc1Nc1nc(N[C@@H]2CCC[C@H](C(N)=O)C2)ncc1Cl` (racemic) [Compound I-114, Rac-cis-3-((5-chloro-4-((4-fluoro-2-methacrylamidophenyl)amino)pyrimidin-2-yl)amino)cyclohexanecarboxamide] was run?
**A.** F (provided a mass modification of 31-69%)

**Q.** `C=CC(=O)Nc1ccccc1Nc1nc(N[C@H]2CCC[C@@H](CO)C2)ncc1Cl` (racemic) [Compound I-121, Rac-cis-N-(2-((5-chloro-2-((3-(hydroxymethyl)cyclohexyl)amino)pyrimidin-4-yl)amino)phenyl)acrylamide] was tested. Which “ERK1 Mass Mod (%)” value did it give?
**A.** E (key: E: provided a mass modification of ≧70%; F: provided a mass modification of 31-69%; G: proived a mass modification ≦30%)

**Q.** `C=CC(=O)N[C@H]1CCCC[C@@H]1Nc1nc(N[C@H]2CCCN(C(=O)CO)C2)ncc1Cl` (racemic) [Compound I-141, Rac-N-(2-((5-chloro-2-(((R)-1-(2-hydroxyacetyl)piperidin-3-yl)amino)pyrimidin-4-yl)amino)-trans-cyclohexyl)acrylamide] was tested. Which “ERK1 Mass Mod (%)” value did it give?
**A.** E (provided a mass modification of ≧70%)

**Q.** `C=CC(=O)N[C@@H]1CCCC[C@H]1Nc1nc(Nc2cc(C(=O)NOC)ccc2C)ncc1Cl` (racemic) [Compound I-188, Rac-trans-3-((4-((2-acrylamidocyclohexyl)amino)-5-chloropyrimidin-2-yl)amino)-N-methoxy-4-methylbenzamide] was tested. Which “ERK1 Mass Mod (%)” value did it give?
**A.** F (provided a mass modification of 31-69%)

**Q.** For `C=CC(=O)Nc1ccccc1Nc1nc(N[C@@H]2CCC[C@H](C(=O)NOC)C2)ncc1Cl` (racemic) [Compound I-203, Rac-cis-3-((4-((2-acrylamidophenyl)amino)-5-chloropyrimidin-2-yl)amino)-N-methoxy-cyclohexanecarboxamide], which “ERK1 Mass Mod (%)” value is on record?
**A.** E (provided a mass modification of ≧70%)

**Q.** How did the “ERK1 Mass Mod (%)” value turn out when `C=CC(=O)N[C@@H]1CCCC[C@H]1Nc1nc(Nc2cc(C(N)=O)ccc2C)ncc1Cl` (racemic) [Compound I-226, Rac-trans-3-((4-((2-acrylamidocyclohexyl)amino)-5-chloropyrimidin-2-yl)amino)-4-methylbenzamide] was run?
**A.** E (provided a mass modification of ≧70%)

**Q.** How did the “ERK1 Mass Mod (%)” value turn out when `C=CC(=O)N[C@@H]1CCCC[C@H]1Nc1nc(Nc2cc(C(N)=O)ccc2C)ncc1C(N)=O` (racemic) [Compound I-255, Rac-trans-4-((2-acrylamidocyclohexyl)amino)-2-((5-carbamoyl-2-methylphenyl)amino)pyrimidine-5-carboxamide] was run?
**A.** F (provided a mass modification of 31-69%)

**Q.** For `C=CC(=O)N[C@@H]1CCCC[C@H]1Nc1nc(Nc2cc(C(=O)NOC)ccc2C)ncc1C(N)=O` (racemic) [Compound I-256, Rac-trans-4-((2-acrylamidocyclohexyl)amino)-2-((5-(methoxycarbamoyl)-2-methylphenyl)amino)pyrimidine-5-carboxamide], which “ERK1 Mass Mod (%)” value is on record?
**A.** G (proived a mass modification ≦30%)

**Q.** `C=CC(=O)N[C@@H]1CCCC[C@H]1Nc1nc(Nc2cc(C(=O)NOCCO)ccc2C)ncc1C(N)=O` (racemic) [Compound I-257, Rac-trans-4-((2-acrylamidocyclohexyl)amino)-2-((5-((2-hydroxyethoxy)carbamoyl)-2-methylphenyl)amino)pyrimidine-5-carboxamide] was tested. Which “ERK1 Mass Mod (%)” value did it give?
**A.** G (proived a mass modification ≦30%)

**Q.** With `C=CC(=O)N[C@@H]1CCCC[C@H]1Oc1nc(Nc2cc(C(N)=O)ccc2C)ncc1C(N)=O` (racemic) [Compound I-268, Rac-trans-4-((2-acrylamidocyclohexyl)oxy)-2-((5-carbamoyl-2-methylphenyl)amino)pyrimidine-5-carboxamide] as the molecule, how does the “ERK1 Mass Mod (%)” value read?
**A.** G (proived a mass modification ≦30%)

**Q.** Which “ERK1 Mass Mod (%)” value does the source give for `C=CC(=O)N[C@@H]1CCCC[C@H]1Oc1nc(Nc2cc(C(=O)NOC)ccc2C)ncc1C(N)=O` (racemic) [Compound I-269, Rac-trans-4-((2-acrylamidocyclohexyl)oxy)-2-((5-(methoxycarbamoyl)-2-methylphenyl)amino)pyrimidine-5-carboxamide] here?
**A.** G (proived a mass modification ≦30%)

**Q.** How did the “ERK1 Mass Mod (%)” value turn out when `C=CC(=O)N[C@@H]1CCCC[C@H]1Oc1nc(Nc2cc(C(N)=O)ccc2C)ncc1Cl` (racemic) [Compound I-270, Rac-trans-3-((4-((2-acrylamidocyclohexyl)oxy)-5-chloropyrimidin-2-yl)amino)-4-methylbenzamide] was run?
**A.** G (proived a mass modification ≦30%)

**Q.** Which “ERK1 Mass Mod (%)” value does the source give for `C=CC(=O)Nc1ccccc1Nc1nc(NC2CCN(C=O)CC2)ncc1C(F)(F)F` [Compound I-11, N-(2-((2-((1-formylpiperidin-4-yl)amino)-5-(trifluoromethyl)pyrimidin-4-yl)amino)phenyl)acrylamide] here?
**A.** E (provided a mass modification of ≧70%)

**Q.** For `C=CC(=O)Nc1ccccc1Nc1nc(NC2CCN(C(C)=O)CC2)ncc1C(F)(F)F` [Compound I-12, N-(2-((2-((1-acetylpiperidin-4-yl)amino)-5-(trifluoromethyl)pyrimidin-4-yl)amino)phenyl)acrylamide], which “ERK1 Mass Mod (%)” value is on record?
**A.** E (provided a mass modification of ≧70%)
